Target: T1, IL-17A/A (Homo sapiens, UniProt Q16552)
T1 construct: purchased Genscript Z03228
T1 sequence (Q16552 24-155): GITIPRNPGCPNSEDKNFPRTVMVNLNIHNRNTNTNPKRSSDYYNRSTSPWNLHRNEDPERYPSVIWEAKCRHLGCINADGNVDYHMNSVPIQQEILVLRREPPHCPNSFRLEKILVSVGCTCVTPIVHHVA
Test: IL-17A/A HEK-Blue cell assay
Assay type: cell-based
Conditions: HEK-Blue IL-17A reporter cell line (HEK 293), IL-17A/A stimulation, 20 hours incubation, SEAP read at A630
Experimental: The HEK-Blue IL-17A reporter cell line (Fisher #NC1408637) was used for cell-based IL-17A/A inhibition assays. Cells were grown and prepared for assays according to the manufacturer's instructions. This cell line consists of HEK 293 cells that were designed to expressed IL-17RA, IL-17RC, and the ActI adapter molecule, the combination of which, when stimulated by IL-17A/A activates a NFκB promoter and drives expression of a recombinant Secreted Alkaline Phosphatase (SEAP) gene protein. Media from the cells is then added to a development reagent (Quanti-Blue Substrate, Fisher #NC9711613), and read at A630.
Compounds were titrated in DMSO, with a top final compound concentration of 10 uM, 1 uM, or 0.3 uM, and added to the cells immediately before adding IL-17A/A (Genscript #Z03228). The cells, compound, and IL-17A/A were then incubated for 20 hours before media was removed for SEAP analysis. The resulting inhibition curve was then analyzed using Graphpad Prism 7.0, and IC50 values were determined using a 4-parameter nonlinear fit. DMSO was added to a universal final concentration of 0.1% to optimize background.

Row | IC50 [nM] | SMILES
1 | < 100 | C[C@H]1CC[C@H]([C@H](NC(=O)c2conc2C2CC2)c2cn3nc(CC4C[C@@H](C(F)(F)F)CNC4=O)ccc3n2)CC1 (stereo partly drawn) [Compound 161, 3-cyclopropyl-N-((1S)-((1R.4S)-4-methylcyclohexyl)(6-(((5R)-2-oxo-5-(trifluoromethyl)piperidin-3-yl)methyl)imidazo[1,2-b]pyridazin-2-yl)methyl)isoxazole-4-carboxamide]
2 | < 100 | CC(C)n1nccc1C(=O)N[C@H](c1cn2nc(CC3C[C@H](C(F)(F)F)CNC3=O)ccc2n1)[C@@H]1CCCC(F)(F)C1 (stereo partly drawn) [Compound 160, N-((1S)—((R)-3,3-difluorocyclohexyl)(6-(((5S)-2-oxo-5-(trifluoromethyl)piperidin-3-yl)methyl)imidazo[1,2-b]pyridazin-2-yl)methyl)-1-isopropyl-1H-pyrazole-5-carboxamide]
3 | 100 to 1000 | CCn1nccc1C(=O)N[C@H](c1cn2nc(CC3C[C@@H](C(F)(F)F)CNC3=O)c(COC)cc2n1)C1CCC(F)(F)CC1 (stereo partly drawn) [Compound 84, N-((1S)-(4,4-difluorocyclohexyl)(7-(methoxymethyl)-6-(((5R)-2-oxo-5-(trifluoromethyl)piperidin-3-yl)methyl)imidazo[1,2-b]pyridazin-2-yl)methyl)-1-ethyl-1H-pyrazole-5-carboxamide]
4 | 100 to 1000 | CCn1nccc1C(=O)NC(c1cn2nc(CC3CC(F)(F)CNC3=O)ccc2n1)C1CCC(C)CC1 (single isomer, unassigned) [Compound 27]
5 | 100 to 1000 | CCn1nccc1C(=O)N[C@H](c1cn2ncc(CC3C[C@@H](C(F)(F)F)NC3=O)cc2n1)C(C1CC1)C1CC1 (single isomer, unassigned) [Compound 202]
6 | 100 to 1000 | CCn1nccc1C(=O)N[C@H](c1cn2nc(CC3C[C@@H](C)NC3=O)ccc2n1)[C@H]1CC[C@H](C)CC1 (single isomer, unassigned) [Compound 63]
7 | 100 to 1000 | Cc1conc1C(=O)N[C@H](c1cn2nc(CC3C[C@@H](C(F)(F)F)CNC3=O)ccc2n1)C1CCC(F)(F)CC1 (stereo partly drawn) [Compound 103, N-((1S)-(4,4-difluorocyclohexyl)(6-(((5R)-2-oxo-5-(trifluoromethyl)piperidin-3-yl)methyl)imidazo[1,2-b]pyridazin-2-yl)methyl)-4-methylisoxazole-3-carboxamide]
8 | 100 to 1000 | O=C(N[C@H](c1cn2nc(CC3C[C@@H](C(F)(F)F)CNC3=O)ccc2n1)C1CCC(F)(F)CC1)c1conc1C1CC(F)(F)C1 (stereo partly drawn) [Compound 124, 3-(3,3-difluorocyclobutyl)-N-((1S)-(4,4-difluorocyclohexyl)(6-(((5R)-2-oxo-5-(trifluoromethyl)piperidin-3-yl)methyl)imidazo[1,2-b]pyridazin-2-yl)methyl)isoxazole-4-carboxamide]
9 | < 100 | CCn1nccc1C(=O)N[C@H](c1cn2nc(CC3C[C@H](C(F)(F)F)CNC3=O)c(C)cc2n1)C1CCC(F)(F)CC1 (single isomer, unassigned) [Compound 92]
10 | 100 to 1000 | CCn1nccc1C(=O)N[C@H](c1cn2nc(CC3C[C@@H](C(F)(F)F)CNC3=O)c(C(F)(F)F)cc2n1)[C@H]1CC[C@H](C)CC1 (single isomer, unassigned) [Compound 78]
11 | > 1000 | C[C@H]1CC[C@H]([C@H](NC(=O)c2nonc2N)c2cn3nc(CC4C[C@@H](C(F)(F)F)CNC4=O)ccc3n2)CC1 (stereo partly drawn) [Compound 164, 4-amino-N-((1S)—((1R.4S)-4-methylcyclohexyl)(6-(((5R)-2-oxo-5-(trifluoromethyl)piperidin-3-yl)methyl)imidazo[1,2-b]pyridazin-2-yl)methyl)-1,2,5-oxadiazole-3-carboxamide]
12 | 100 to 1000 | O=C(N[C@H](c1cn2nc(CC3C[C@@H](C(F)(F)F)CNC3=O)ccc2n1)C1CCC(F)(F)CC1)c1ccnn1CCF (stereo partly drawn) [Compound 101, N-((1S)-(4,4-difluorocyclohexyl)(6-(((5R)-2-oxo-5-(trifluoromethyl)piperidin-3-yl)methyl)imidazo[1,2-b]pyridazin-2-yl)methyl)-1-(2-fluoroethyl)-1H-pyrazole-5-carboxamide]
13 | 100 to 1000 | CCCn1nccc1C(=O)N[C@H](c1cn2nc(CC3C[C@@H](C(F)(F)F)CNC3=O)ccc2n1)C1CCC(F)(F)CC1 (stereo partly drawn) [Compound 128, N-((1S)-(4,4-difluorocyclohexyl)(6-(((5R)-2-oxo-5-(trifluoromethyl)piperidin-3-yl)methyl)imidazo[1,2-b]pyridazin-2-yl)methyl)-1-propyl-1H-pyrazole-5-carboxamide]
14 | > 1000 | CCn1nccc1C(=O)N[C@H](c1cn2nc(CC3C[C@@H](C(F)(F)F)CNC3=O)ccc2n1)C12CC(C)(C1)C2 (stereo partly drawn) [Compound 178, 1-ethyl-N-((1S)-(3-methylbicyclo[1.1.1]pentan-1-yl)(6-(((5R)-2-oxo-5-(trifluoromethyl)piperidin-3-yl)methyl)imidazo[1,2-b]pyridazin-2-yl)methyl)-1H-pyrazole-5-carboxamide]
15 | > 1000 | Cc1nonc1C(=O)N[C@H](c1cn2nc(C[C@H]3C[C@@H](C(F)(F)F)NC3=O)ccc2n1)C1CCC(F)(F)CC1 [Compound 18, N—((S)-(4,4-difluorocyclohexyl)(6-(((3R,5S)-2-oxo-5-(trifluoromethyl)pyrrolidin-3-yl)methyl)imidazo[1,2-b]pyridazin-2-yl)methyl)-4-methyl-1,2,5-oxadiazole-3-carboxamide]
16 | < 100 | O=C(N[C@H](c1cn2nc(CC3C[C@@H](C(F)(F)F)CNC3=O)ccc2n1)C1CCC(F)(F)CC1)c1nonc1C1CC1 (stereo partly drawn) [Compound 104, 4-cyclopropyl-N-((1S)-(4,4-difluorocyclohexyl)(6-(((5R)-2-oxo-5-(trifluoromethyl)piperidin-3-yl)methyl)imidazo[1,2-b]pyridazin-2-yl)methyl)-1,2,5-oxadiazole-3-carboxamide]
17 | > 1000 | CCn1nccc1C(=O)N[C@H](c1cn2ncc(CC3CCNC3=O)cc2n1)C1CCCCCC1 (stereo partly drawn) [Compound 203, N-((1 S)-cycloheptyl(7-((2-oxopyrrolidin-3-yl)methyl)imidazo[1,2-b]pyridazin-2-yl)methyl)-1-ethyl-1H-pyrazole-5-carboxamide]
18 | < 100 | CCn1nccc1C(=O)N[C@H](c1cn2nc(CC3C[C@@H](C(F)(F)F)CNC3=O)c(C(C)(C)O)cc2n1)C1CCC(F)(F)CC1 (stereo partly drawn) [Compound 186, N-((1S)-(4,4-difluorocyclohexyl)(7-(2-hydroxypropan-2-yl)-6-(((5R)-2-oxo-5-(trifluoromethyl)piperidin-3-yl)methyl)imidazo[1,2-b]pyridazin-2-yl)methyl)-1-ethyl-1H-pyrazole-5-carboxamide]
19 | > 1000 | CCn1nccc1C(=O)N[C@H](c1cn2nc(CC3CCC(C(F)(F)F)NC3=O)ccc2n1)C(C1CC1)C1CC1 (single isomer, unassigned) [Compound 42]
20 | 100 to 1000 | C[C@H]1CC[C@H]([C@H](NC(=O)c2ccnn2CCO)c2cn3nc(CC4C[C@@H](C(F)(F)F)CNC4=O)ccc3n2)CC1 (stereo partly drawn) [Compound 167, 1-(2-hydroxyethyl)-N—((S)-((1R.4S)-4-methylcyclohexyl)(6-(((3R.5R)-2-oxo-5-(trifluoromethyl)piperidin-3-yl)methyl)imidazo[1,2-b]pyridazin-2-yl)methyl)-1H-pyrazole-5-carboxamide]
21 | 100 to 1000 | CCn1nccc1C(=O)N[C@H](c1cn2nc(CC3CC(C(C)(F)F)NC3=O)ccc2n1)C1CCC(F)(F)CC1 (single isomer, unassigned) [Compound 69]
22 | > 1000 | CCn1nccc1C(=O)N[C@H](c1cn2nc(CC3CC(C(C)(F)F)NC3=O)ccc2n1)C1CCC(F)(F)CC1 (single isomer, unassigned) [Compound 68]
23 | 100 to 1000 | CCn1nccc1C(=O)N[C@H](c1cn2nc(CC3CC4(CC4)NC3=O)ccc2n1)C(C1CC1)C1CC1 (stereo partly drawn) [Compound 60, N-((1S)-2,2-dicyclopropyl-1-(6-((5-oxo-4-azaspiro[2.4]heptan-6-yl)methyl)imidazo[1,2-b]pyridazin-2-yl)ethyl)-1-ethyl-1H-pyrazole-5-carboxamide]
24 | < 100 | CC(C)n1nccc1C(=O)N[C@H](c1cn2nc(CC3C[C@@H](C(F)(F)F)CNC3=O)ccc2n1)C1CCC(F)(F)CC1 (stereo partly drawn) [Compound 111, N-((1S)-(4,4-difluorocyclohexyl)(6-(((5R)-2-oxo-5-(trifluoromethyl)piperidin-3-yl)methyl)imidazo[1,2-b]pyridazin-2-yl)methyl)-1-isopropyl-1H-pyrazole-5-carboxamide]
25 | > 1000 | CCn1nccc1C(=O)N[C@H](c1cn2nc(CC3CC(C)(F)CNC3=O)ccc2n1)C(C1CC1)C1CC1 (mixture of isomers) [Compound 40, N-((1S)-2,2-dicyclopropyl-1-(6-((5-fluoro-5-methyl-2-oxopiperidin-3-yl)methyl)imidazo[1,2-b]pyridazin-2-yl)ethyl)-1-ethyl-1H-pyrazole-5-carboxamide]
26 | < 100 | O=C(N[C@H](c1cn2ncc(CC3C[C@@H](C(F)(F)F)NC3=O)cc2n1)C1CCC(F)(F)CC1)c1nonc1C1CC1 (single isomer, unassigned) [Compound 205]
27 | 100 to 1000 | CCn1nccc1C(=O)N[C@H](c1cn2nc(CC3C(=O)NCCC3C)ccc2n1)[C@H]1CC[C@H](C)CC1 (single isomer, unassigned) [Compound 53]

Source: patent US20250346602A1, “LACTAM SUBSTITUTED IMIDAZOPYRIDAZINE IL-17A MODULATORS AND USES THEREOF” (DICE ALPHA, INC., priority 2022, published 2025)
